The term IC50 denotes the concentration that inhibits the measured activity by half.

The target in the assay is DDR1 kinase (Homo sapiens, UniProt Q08345). The assay can be described thus: Evaluation of DDR1 kinase inhibition (LANCE Ultra TR-FRET kinase assay). The assay is classed as biochemical. More on the design: purchased Carna Biosciences 08-113. The following applies: DDR1 protein 0.5 nM, LANCE Ultra ULight-poly GAT substrate, 2 hours at room temperature, duplicate; read-out: DDR-1 IC50. In general terms: In TR-FRET formats the signal depends on donor and acceptor labels being close together.

Counter-ions that a name gives are not always drawn.

Sequence of DDR1 kinase (Q08345 19-876 isoform Q08345-2 limits assumed): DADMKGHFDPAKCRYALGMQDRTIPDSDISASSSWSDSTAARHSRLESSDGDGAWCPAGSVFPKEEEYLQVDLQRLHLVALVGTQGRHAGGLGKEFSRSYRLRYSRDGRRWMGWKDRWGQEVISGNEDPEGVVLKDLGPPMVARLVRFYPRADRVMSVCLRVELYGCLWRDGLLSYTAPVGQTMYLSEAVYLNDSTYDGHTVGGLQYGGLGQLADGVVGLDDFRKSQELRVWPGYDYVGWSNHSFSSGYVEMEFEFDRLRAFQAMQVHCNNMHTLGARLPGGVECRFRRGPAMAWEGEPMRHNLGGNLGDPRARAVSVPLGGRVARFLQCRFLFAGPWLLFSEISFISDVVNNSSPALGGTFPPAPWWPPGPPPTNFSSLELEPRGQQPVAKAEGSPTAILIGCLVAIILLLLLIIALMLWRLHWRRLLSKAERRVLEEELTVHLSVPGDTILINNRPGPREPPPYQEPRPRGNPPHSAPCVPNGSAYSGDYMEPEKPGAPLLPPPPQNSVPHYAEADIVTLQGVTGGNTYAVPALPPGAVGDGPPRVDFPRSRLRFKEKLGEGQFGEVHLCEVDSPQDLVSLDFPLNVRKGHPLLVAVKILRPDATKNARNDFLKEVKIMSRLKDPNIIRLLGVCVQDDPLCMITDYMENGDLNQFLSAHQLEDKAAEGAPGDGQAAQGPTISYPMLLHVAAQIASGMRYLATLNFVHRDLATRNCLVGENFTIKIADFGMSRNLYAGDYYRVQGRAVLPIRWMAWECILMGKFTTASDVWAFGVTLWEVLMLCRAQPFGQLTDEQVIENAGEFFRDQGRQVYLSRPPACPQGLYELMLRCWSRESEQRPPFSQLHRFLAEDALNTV

For the molecule `Nc1cc(C(=O)N2CC(O)(c3nn(CC(=O)N4CCC[C@H]4C(F)(F)F)c4ccccc34)C2)c(F)cn1` [Compound E-281, 2-{3-[1-(2-amino-5-fluoropyridine-4-carbonyl)-3-hydroxyazetidin-3-yl]-1H-indazol-1-yl}-1-[(28)-2-(trifluoromethyl)pyrrolidin-1-yl]ethan-1-one], the half-inhibitory concentration (IC50) came out at 11 nM.

In the case of `Cc1ccc2c(c1)c(C1CN(C(=O)c3cc(N)ncc3F)C1)nn2CC(=O)N1CCC[C@H]1C(F)(F)F` [Compound E-201, 2-{3-[1-(2-amino-5-fluoropyridine-4-carbonyl)azetidin-3-yl]-5-methyl-1H-indazol-1-yl}-1-[(28)-2-(trifluoromethyl)pyrrolidin-1-yl]ethan-1-one], the IC50 was found to be 1.7 nM.

As to `CC1(C)CCCN1C(=O)Cn1nc(C2CN(C(=O)c3ccnc(N)c3)C2)c2c(F)cc(F)cc21` [Compound E-127, 2-{3-[1-(2-aminopyridine-4-carbonyl)azetidin-3-yl]-4,6-difluoro-1H-indazol-1-yl}-1-(2,2-dimethylpyrrolidin-1-yl)ethan-1-one], the IC50 amounted to 11 nM.

Consider `Nc1cc(C(=O)N2CC(c3nn(CC(=O)NC(C4CC4)C4CC4)c4ccccc34)C2)ccn1` [Compound E-224, 2-{3-[1-(2-aminopyridine-4-carbonyl)azetidin-3-yl]-1H-indazol-1-yl}-N-(dicyclopropylmethyl)acetamide], for which the IC50 came to 18 nM. Take `CC(C)(C)NC(=O)Cn1nc(C2CN(C(=O)c3cc(N)ncc3F)C2)c2ccccc21` [Compound E-199, 2-{3-[1-(2-amino-5-fluoropyridine-4-carbonyl)azetidin-3-yl]-1H-indazol-1-yl}-N-tert-butylacetamide]: the IC50 came to 5.2 nM. Turning to `CC(C)(NC(=O)Cn1nc(C2CN(C(=O)c3ccnc(N)c3)C2)c2ccccc21)C1CC1` [Compound E-234, 2-{3-[1-(2-aminopyridine-4-carbonyl)azetidin-3-yl]-1H-indazol-1-yl}-N-(2-cyclopropylpropan-2-yl)acetamide], the IC50 amounted to 7.9 nM. Turning to `Nc1cc(C(=O)N2CC(c3nn(Cc4ccc(C(F)(F)F)cn4)c4cncc(F)c34)C2)ccn1` [Compound E-150], the half-inhibitory concentration (IC50) is 350 nM. As for `CN(CC1CC(F)(F)C1)C(=O)Cn1nc(C2CN(C(=O)c3cc(N)ncc3F)C2)c2ccccc21` [Compound E-256, 2-{3-[1-(2-amino-5-fluoropyridine-4-carbonyl)azetidin-3-yl]-1H-indazol-1-yl]-N-[(3,3-difluorocyclobutyl)methyl]-N-methylacetamide], the IC50 was 2 nM. For `Nc1cc(C(=O)N2CC(c3nn(Cc4noc(-c5ccc(F)cn5)n4)c4cccc(F)c34)C2)ccn1` [Compound E-153, 4-{3-(4-fluoro-1-{[5-(5-fluoropyridin-2-yl)-1,2,4-oxadiazol-3-yl]methyl}-1H-indazol-3-yl)azetidine-1-carbonyl]pyridin-2-amine] the value was 140 nM; for `Nc1cc(C(=O)N2CC=C(c3nn(CC(=O)N4CCC[C@H]4C(F)(F)F)c4ccccc34)CC2)c(F)cn1` [Compound E-47, 2-{3-[1-(2-amino-5-fluoropyridine-4-carbonyl)-1,2,3,6-tetrahydropyridin-4-yl]-1H-indazol-1-yl}-1-[(2S)-2-(trifluoromethyl)pyrrolidin-1-yl]ethan-1-one], 140 nM; for `Nc1cc(C(=O)N2CCC(c3cn(CC(=O)N4CCC[C@H]4C(F)(F)F)c4cccc(F)c34)CC2)c(F)cn1` [Compound E-10, 2-{3-[1-(2-amino-5-fluoropyridine-4-carbonyl)piperidin-4-yl]-4-fluoro-1H-indol-1-yl}-1-[(2S)-2-(trifluoromethyl)pyrrolidin-1-yl]ethan-1-one], 0.3 nM.

`Cc1c(C(=O)N2CC(c3nn(CC(=O)N4CCC[C@H]4C(F)(F)F)c4ccnc(C)c34)C2)ccnc1N` [Compound E-94]: the IC50 amounted to 150 nM. For `Cc1nccc2c1c(C1CN(C(=O)c3ccnc(NC4CC4)c3)C1)nn2CC(=O)N1CCC[C@H]1C(F)(F)F` [Compound E-93, 2-(3-{1-[2-(cyclopropylamino)pyridine-4-carbonyl]azetidin-3-yl}-4-methyl-1H-pyrazolo[4,3-c]pyridin-1-yl)-1-[(2S)-2-(trifluoromethyl)pyrrolidin-1-yl]ethan-1-one] the value was 110 nM; for `COCC(C)(C)NC(=O)Cn1nc(C2CN(C(=O)c3ccnc(N)c3)C2)c2ccccc21` [Compound E-208], 170 nM. For the molecule `CC1(NC(=O)Cn2nc(C3CN(C(=O)c4ccnc(N)c4)C3)c3ccccc32)CCOCC1` [Compound E-209, 2-{3-[1-(2-aminopyridine-4-carbonyl)azetidin-3-yl]-1H-indazol-1-yl}-N-(4-methyloxan-4-yl)acetamide], the IC50 came out at 280 nM.

With `Nc1cc(C(=O)N2CC(c3nn(CC(=O)N4CCO[C@@H](C(F)(F)F)C4)c4ccccc34)C2)ccn1` [Compound E-193, 2-{3-[1-(2-aminopyridine-4-carbonyl)azetidin-3-yl]-1H-indazol-1-yl}-1-[(2R)-2-(trifluoromethyl)morpholin-4-yl]ethan-1-one], the IC50 was 1.5 nM. For `Nc1nccc(C(=O)N2CC(c3nn(CC(=O)N4CCC[C@H]4C(F)(F)F)c4cc(F)ccc34)C2)n1` [Compound E-286, 2-{3-[1-(2-aminopyrimidine-4-carbonyl)azetidin-3-yl]-6-fluoro-1H-indazol-1-yl}-1-[(2S)-2-(trifluoromethyl)pyrrolidin-1-yl]ethan-1-one] the value was 5 nM. To `CN(CC(F)(F)F)C(=O)Cn1nc(C2CN(C(=O)c3ccnc(N)n3)C2)c2cc(F)ccc21` [Compound E-293, 2-{3-[1-(2-aminopyrimidine-4-carbonyl)azetidin-3-yl]-5-fluoro-1H-indazol-1-yl]-N-methyl-N-(2,2,2-trifluoroethyl)acetamide] belongs 26 nM; to `Cc1cc2c(C3CN(C(=O)c4ccnc(N)c4C)C3)nn(CC(=O)N3CCO[C@@H](C(F)(F)F)C3)c2cn1` [Compound E-178, 2-{3-[1-(2-amino-3-methylpyridine-4-carbonyl)azetidin-3-yl]-5-methyl-1H-pyrazolol3,4-clpyridin-1-yl}-1-[(2R)-2-(trifluoromethyl)morpholin-4-yl]ethan-1-one dihydrochloride], 54 nM; to `Nc1cc(C(=O)N2CC(c3nn(CC(=O)NC45CC(C4)C5)c4cccc(F)c34)C2)ccn1` [Compound E-239, 2-{3-[1-(2-aminopyridine-4-carbonyl)azetidin-3-yl]-4-fluoro-1H-indazol-1-yl}-N-{bicyclo[1.1.1]pentan-1-yl}acetamide], 3.3 nM.

`Nc1cc(C(=O)N2CC(c3nn(Cc4noc(C(F)(F)F)n4)c4cccc(F)c34)C2)ccn1` [Compound E-216, 4-[3-(4-fluoro-1-([5-(trifluoromethyl)-1,2,4-oxadiazol-3-yl]methyl)-1H-indazol-3-yl)azetidine-1-carbonyl]pyridin-2-amine]: the concentration for half-maximal inhibition (IC50) was determined as 13 nM. For `Nc1cc(C(=O)N2CC(c3nn(Cc4noc(C(F)(F)F)n4)c4ccccc34)C2)ccn1` [Compound E-217, 4-[3-(1-{[5-(trifluoromethyl)-1,2.4-oxadiazol-3-yl]methyl}-1 H-indazol-3-yl)azetidine-1-carbonyl]pyridin-2-amine] the value was 32 nM; for `C[C@H]1COC[C@H](C)N1C(=O)Cn1nc(C2CN(C(=O)c3cc(N)ncc3F)C2)c2c(F)cc(F)cc21` [Compound E-182, 2-{3-[1-(2-amino-5-fluoropyridine-4-carbonyl)azetidin-3-yl]-4,6-difluoro-1H-indazol-1-yl}-1-[(3S,5S)-3,5-dimethylmorpholin-4-yl]ethan-1-one], 12 nM.

`Cc1nc(N)sc1C(=O)N1CC(c2nn(CC(=O)N3CCO[C@@H](C(F)(F)F)C3)c3cc(F)cc(F)c23)C1` [Compound E-173, 2-(3-[1-(2-amino-4-methyl-1,3-thiazole-5-carbonyl)azetidin-3-yl]-4,6-difluoro-1H-indazol-1-yl}-1-[(2R)-2-(trifluoromethyl)morpholin-4-yl]ethan-1-one]: the IC50 was 70 nM. To `Nc1cc(C(=O)N2CCC(c3nn(Cc4ccc(C(F)(F)F)nc4)c4cccc(F)c34)CC2)ccn1` [Compound E-134, 4-[4-(4-fluoro-1-([6-(trifluoromethyl)pyridin-3-yl]methyl)-1H-indazol-3-yl)piperidine-1-carbonyl]pyridin-2-amine] belongs 110 nM.

Take `Nc1cc(C(=O)N2CC(c3nn(CC(=O)N4CCC[C@H]4C(F)(F)F)c4cc(F)cc(F)c34)C2)c(F)cn1` [Compound E-155]: the IC50 was 2.4 nM. `Nc1cc(C(=O)N2CC(c3nn(Cc4nc(-c5ccncc5)no4)c4cccc(F)c34)C2)ccn1` [Compound E-138, 4-[3-(4-fluoro-1-{(S-(pyridin-4-yl)-1,2,4-oxadiazol-5-yl]methyl}-1H-indazol-3-yl)azetidine-1-carbonyl]pyridin-2-amine]: the IC50 is 50 nM.

In the case of `CN(CC(F)(F)F)C(=O)Cn1nc(C2(C)CN(C(=O)c3ccnc(N)c3)C2)c2ccccc21` [Compound E-273, 2-{3-[1-(2-aminopyridine-4-carbonyl)-3-methylazetidin-3-yl]-1H-indazol-1-yl}-N-methyl-N-(2,2,2-trifluoroethyl)acetamide], the IC50 was 60 nM. For `CC(C)(C)NC(=O)Cn1nc(C2CN(C(=O)c3ccnc(N)c3)C2)c2ccccc21` [Compound E-198, 2-{3-[1-(2-aminopyridine-4-carbonyl)azetidin-3-yl]-1H-indazol-1-yl}-N-tert-butylacetamide] the value was 31 nM; for `Nc1cc(C(=O)N2CC(c3nn(Cc4noc(-c5cccc(C(F)(F)F)c5)n4)c4cccc(F)c34)C2)ccn1` [Compound E-117, 4-{3-[4-fluoro-1-({5-[3-(trifluoromethyl)phenyl])-1,2,4-oxadiazol-3-ylimethyl)-1H-indazol-3-yl]azetidine-1-carbonyl}pyridin-2-amine], 56 nM. `Nc1cc(C(=O)N2CC(c3nn(CC(=O)N4CC5CCC(C4)O5)c4ccccc34)C2)c(F)cn1` [Compound E-258, 2-{3-[1-(2-amino-5-fluoropyridine-4-carbonyl)azetidin-3-yl]-1H-indazol-1-yll-1-18-oxa-3-azabicyclo[3.2.1}octan-3-yl]ethan-1-one]: the IC50 is 74 nM.

Values taken from patent publication EP4624465A1, “COMPOUND SERVING AS DDR1 KINASE INHIBITOR, AND MEDICINE” (Nippon Shinyaku Co., Ltd., priority 2022, dated 2024).
